Data published in US8791131B2, “Imidazo[1,5]naphthyridine compounds, their pharmaceutical use and compositions” (Pfizer Inc., priority 2008, dated 2014).

Columns and labels:
PI3-Kα = PI3-Kα (Mus musculus (Mouse), UniProt P42337); test: PI3-Kα biochemical assay (in vitro kinase assay, fluorescence polarization); details: Ki calculated from IC50, [ATP]=30 uM, Km=25 uM;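 further: Insect-cell-expressed mouse p110/p85 complex converting PI(4,5)P2, product PI(3,4,5)P3 detected by displacing TAMRA-tagged PI(3,4,5)P3 from Grip1 PH domain, lower polarization means more product, room temperature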
Chain of PI3-Kα (P42337 whole entry, the tested form may be a part): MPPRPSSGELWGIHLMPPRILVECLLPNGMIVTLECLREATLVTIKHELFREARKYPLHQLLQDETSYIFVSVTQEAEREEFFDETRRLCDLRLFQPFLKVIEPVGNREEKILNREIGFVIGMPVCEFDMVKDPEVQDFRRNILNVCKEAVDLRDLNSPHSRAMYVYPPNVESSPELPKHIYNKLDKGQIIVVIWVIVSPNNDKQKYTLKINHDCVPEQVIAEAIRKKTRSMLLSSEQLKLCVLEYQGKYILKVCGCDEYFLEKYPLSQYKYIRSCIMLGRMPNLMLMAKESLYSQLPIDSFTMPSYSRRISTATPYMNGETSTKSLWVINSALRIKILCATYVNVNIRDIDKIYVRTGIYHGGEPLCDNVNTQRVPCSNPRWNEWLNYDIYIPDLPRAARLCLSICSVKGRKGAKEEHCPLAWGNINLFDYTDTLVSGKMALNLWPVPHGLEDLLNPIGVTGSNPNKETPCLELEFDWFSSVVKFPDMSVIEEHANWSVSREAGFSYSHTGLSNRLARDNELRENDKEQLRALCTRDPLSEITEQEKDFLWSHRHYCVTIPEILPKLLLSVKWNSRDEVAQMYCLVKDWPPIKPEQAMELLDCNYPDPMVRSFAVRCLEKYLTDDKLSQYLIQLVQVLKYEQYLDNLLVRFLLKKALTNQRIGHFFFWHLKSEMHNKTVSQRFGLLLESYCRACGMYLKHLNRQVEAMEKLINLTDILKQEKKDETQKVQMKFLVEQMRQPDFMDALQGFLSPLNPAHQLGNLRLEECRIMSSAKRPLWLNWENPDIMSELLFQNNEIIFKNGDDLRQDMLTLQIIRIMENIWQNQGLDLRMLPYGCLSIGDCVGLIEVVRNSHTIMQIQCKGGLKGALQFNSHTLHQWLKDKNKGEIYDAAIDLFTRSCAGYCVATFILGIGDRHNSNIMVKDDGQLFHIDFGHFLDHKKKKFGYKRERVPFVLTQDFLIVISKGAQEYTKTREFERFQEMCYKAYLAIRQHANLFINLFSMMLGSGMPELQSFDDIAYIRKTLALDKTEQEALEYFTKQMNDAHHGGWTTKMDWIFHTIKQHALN
Chain of PI3-Kα (P26450 whole entry partner, the tested form may be a part): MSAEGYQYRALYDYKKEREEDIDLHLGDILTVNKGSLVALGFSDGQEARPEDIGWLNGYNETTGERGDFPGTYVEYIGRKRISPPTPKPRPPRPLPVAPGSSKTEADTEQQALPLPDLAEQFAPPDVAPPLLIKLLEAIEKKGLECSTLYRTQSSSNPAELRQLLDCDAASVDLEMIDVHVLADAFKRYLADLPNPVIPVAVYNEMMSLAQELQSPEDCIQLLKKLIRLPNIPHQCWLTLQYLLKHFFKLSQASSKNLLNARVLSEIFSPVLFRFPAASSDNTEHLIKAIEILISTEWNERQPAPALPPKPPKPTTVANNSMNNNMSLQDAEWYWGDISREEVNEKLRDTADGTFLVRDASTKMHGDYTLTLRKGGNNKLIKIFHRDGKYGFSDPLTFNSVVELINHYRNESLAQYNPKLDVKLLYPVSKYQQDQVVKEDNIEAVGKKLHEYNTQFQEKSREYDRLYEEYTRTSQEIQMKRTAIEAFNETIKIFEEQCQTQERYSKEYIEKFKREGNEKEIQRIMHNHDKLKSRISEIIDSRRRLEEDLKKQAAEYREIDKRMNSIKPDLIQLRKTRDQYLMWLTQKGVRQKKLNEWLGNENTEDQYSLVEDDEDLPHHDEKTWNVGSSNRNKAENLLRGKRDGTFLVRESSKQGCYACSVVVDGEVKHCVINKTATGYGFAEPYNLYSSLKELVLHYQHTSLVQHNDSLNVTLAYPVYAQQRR

[1] = test system: PI3-K (phosphorylation of AKT at serine 473) in BT20 cells; test: PI3-Kα cellular assay (phospho-AKT Ser473 ELISA in BT20 cells); details: Homo sapiens, BT-20, 1 h, read-out: S473 pAKT 10% FBS IC50 (μM);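 further: lysates read by ELISA with TMB colour at 450 nm, cells given 0.5% DMSO vehicle serve as positive control and cell-free wells as negative control, duplicate wells per concentration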
mTOR = mTOR (Homo sapiens (Human), UniProt P42345)
Chain of mTOR (P42345 2156-2469): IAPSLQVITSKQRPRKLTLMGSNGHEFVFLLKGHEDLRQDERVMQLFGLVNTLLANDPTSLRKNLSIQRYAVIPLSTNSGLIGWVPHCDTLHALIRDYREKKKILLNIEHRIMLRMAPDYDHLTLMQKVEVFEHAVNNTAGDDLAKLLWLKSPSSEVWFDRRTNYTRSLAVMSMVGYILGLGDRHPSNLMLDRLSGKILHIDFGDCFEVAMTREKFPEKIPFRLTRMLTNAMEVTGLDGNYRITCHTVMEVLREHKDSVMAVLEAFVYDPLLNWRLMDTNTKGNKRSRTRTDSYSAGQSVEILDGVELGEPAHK

## Cc1ccc(-c2ccc3ncc4c(c3n2)n(C2CCN(C)CC2)c(=O)n4C)cn1 [Compound 171, 3-methyl-1-(1-methylpiperidin-4-yl)-8-(6-methylpyridin-3-yl)-1,3-dihydro-2H-imidazo[4,5-c][1,5]naphthyridin-2-one]
PI3-Kα
  PI3Ka Ki: 4.26 nM
[1]
  IC50: 0.0228 µM
mTOR
  Ki: 40.1 nM

## Cc1ccc(-c2ccc3ncc4c(c3n2)n(C2CCN(CC(N)=O)CC2)c(=O)n4C)cn1 [Compound 176, 2-{4-[3-methyl-8-(6-methylpyridin-3-yl)-2-oxo-2,3-dihydro-1H-imidazo[4,5-c][1,5]naphthyridin-1-yl]piperidin-1-yl}acetamide]
PI3-Kα
  PI3Ka Ki: 0.882 nM
[1]
  IC50: 0.0187 µM
mTOR
  Ki: 1.41 nM

## Cc1ccc(-c2ccc3ncc4c(c3n2)n(C2CCN(C(=O)CN(C)C)CC2)c(=O)n4C)cn1 [Compound 178, 1-[1-(N,N-dimethylglycyl)piperidin-4-yl]-3-methyl-8-(6-methylpyridin-3-yl)-1,3-dihydro-2H-imidazo[4,5-c][1,5]naphthyridin-2-one]
PI3-Kα
  PI3Ka Ki: 4.09 nM
[1]
  IC50: 0.0427 µM
mTOR
  Ki: 1.18 nM

## Cc1ccc(-c2ccc3ncc4c(c3n2)n([C@H]2CC[C@H](O)CC2)c(=O)n4C)cn1 [Compound 179, 1-(trans-4-hydroxycyclohexyl)-3-methyl-8-(6-methylpyridin-3-yl)-1,3-dihydro-2H-imidazo[4,5-c][1,5]naphthyridin-2-one]
PI3-Kα
  PI3Ka Ki: 1.03 nM
[1]
  IC50: 0.0185 µM
mTOR
  Ki: 3.29 nM

## Cc1ccc(-c2ccc3ncc4c(c3n2)n(C2CCN(C(=O)CN)CC2)c(=O)n4C)cn1 [Compound 180, 1-(1-glycylpiperidin-4-yl)-3-methyl-8-(6-methylpyridin-3-yl)-1,3-dihydro-2H-imidazo[4,5-c][1,5]naphthyridin-2-one]
PI3-Kα
  PI3Ka Ki: 0.32 nM
[1]
  IC50: 0.0689 µM
mTOR
  Ki: 3.84 nM

## COc1ncc(-c2ccc3ncc4c(c3n2)n(C2CCN(C)CC2)c(=O)n4C)cn1 [Compound 182, 8-(2-methoxypyrimidin-5-yl)-3-methyl-1-(1-methylpiperidin-4-yl)-1,3-dihydro-2H-imidazo[4,5-c][1,5]naphthyridin-2-one]
PI3-Kα
  PI3Ka Ki: 27.5 nM
[1]
  IC50: 0.159 µM
mTOR
  Ki: 4.51 nM

## COc1ncc(-c2ccc3ncc4c(c3n2)n(C2CCN(C(=O)CN)CC2)c(=O)n4C)cn1 [Compound 184, 1-(1-glycylpiperidin-4-yl)-8-(2-methoxypyrimidin-5-yl)-3-methyl-1,3-dihydro-2H-imidazo[4,5-c][1,5]naphthyridin-2-one]
PI3-Kα
  PI3Ka Ki: 3.93 nM
[1]
  IC50: 0.184 µM
mTOR
  Ki: 13.3 nM

## COc1ncc(-c2ccc3ncc4c(c3n2)n(C2CCN(CCO)CC2)c(=O)n4C)cn1 [Compound 185, 1-[1-(2-hydroxyethyl)piperidin-4-yl]-8-(2-methoxypyrimidin-5-yl)-3-methyl-1,3-dihydro-2H-imidazo[4,5-c][1,5]naphthyridin-2-one]
PI3-Kα
  PI3Ka Ki: 11.9 nM
[1]
  IC50: 0.124 µM
mTOR
  Ki: 25.2 nM

## COc1ncc(-c2ccc3ncc4c(c3n2)n(C2CCN(C(C)=O)CC2)c(=O)n4C)cn1 [Compound 187, 1-(1-acetylpiperidin-4-yl)-8-(2-methoxypyrimidin-5-yl)-3-methyl-1,3-dihydro-2H-imidazo[4,5-c][1,5]naphthyridin-2-one]
PI3-Kα
  PI3Ka Ki: 3.87 nM
[1]
  IC50: 0.0346 µM
mTOR
  Ki: 3.74 nM

## COc1ncc(-c2ccc3ncc4c(c3n2)n(C2CCNCC2)c(=O)n4C)cn1 [Compound 188, 8-(2-methoxypyrimidin-5-yl)-3-methyl-1-piperidin-4-yl-1,3-dihydro-2H-imidazo[4,5-c][1,5]naphthyridin-2-one]
PI3-Kα
  PI3Ka Ki: 8.15 nM
[1]
  IC50: 0.333 µM
mTOR
  Ki: 50.4 nM

## CN(C)c1ccc(-c2ccc3ncc4c(c3n2)n(C2CCNCC2)c(=O)n4C)cn1 [Compound 191, 8-[6-(dimethylamino)pyridin-3-yl]-3-methyl-1-piperidin-4-yl-1,3-dihydro-2H-imidazo[4,5-c][1,5]naphthyridin-2-one]
PI3-Kα
  PI3Ka Ki: 0.5 nM
[1]
  IC50: 0.0246 µM
mTOR
  Ki: 8.41 nM

## N[C@H]1CC[C@H](n2c(=O)[nH]c3cnc4ccc(-c5cnc6ccccc6c5)nc4c32)CC1 [Compound 192, 1-(trans-4-aminocyclohexyl)-8-quinolin-3-yl-1,3-dihydro-2H-imidazo[4,5-c][1,5]naphthyridin-2-one]
PI3-Kα
  PI3Ka Ki: 2.21 nM
[1]
  IC50: 0.402 µM
mTOR
  Ki: 3.33 nM

## CC(=O)N1CCC(n2c(=O)n(C)c3cnc4ccc(-c5ccc(N(C)C)nc5)nc4c32)CC1 [Compound 195, 1-(1-acetylpiperidin-4-yl)-8-[6-(dimethylamino)pyridin-3-yl]-3-methyl-1,3-dihydro-2H-imidazo[4,5-c][1,5]naphthyridin-2-one]
PI3-Kα
  PI3Ka Ki: 0.391 nM
[1]
  IC50: 0.0172 µM
mTOR
  Ki: 1.72 nM

## CNC(=O)N1CCC(n2c(=O)n(C)c3cnc4ccc(-c5ccc(N(C)C)nc5)nc4c32)CC1 [Compound 196, 4-{8-[6-(dimethylamino)pyridin-3-yl]-3-methyl-2-oxo-2,3-dihydro-1H-imidazo[4,5-c][1,5]naphthyridin-1-yl}-N-methylpiperidine-1-carboxamide]
PI3-Kα
  PI3Ka Ki: 0.76 nM
[1]
  IC50: 0.0243 µM
mTOR
  Ki: 3.01 nM

## CN(C)c1ccc(-c2ccc3ncc4c(c3n2)n(C2CCN(C(N)=O)CC2)c(=O)n4C)cn1 [Compound 197, 4-{8-[6-(dimethylamino)pyridin-3-yl]-3-methyl-2-oxo-2,3-dihydro-1H-imidazo[4,5-c][1,5]naphthyridin-1-yl}piperidine-1-carboxamide]
PI3-Kα
  PI3Ka Ki: 1.05 nM
[1]
  IC50: 0.0358 µM
mTOR
  Ki: 0.444 nM

## CN(C)c1ccc(-c2ccc3ncc4c(c3n2)n(C2CCN(CCO)CC2)c(=O)n4C)cn1 [Compound 198, 8-[6-(dimethylamino)pyridin-3-yl]-1-[1-(2-hydroxyethyl)piperidin-4-yl]-3-methyl-1,3-dihydro-2H-imidazo[4,5-c][1,5]naphthyridin-2-one]
PI3-Kα
  PI3Ka Ki: 3.13 nM
[1]
  IC50: 0.0325 µM
mTOR
  Ki: 3.52 nM

## Cn1c(=O)n(C2CCOCC2)c2c3nc(-c4cn[nH]c4)ccc3ncc21 [Compound 199, 3-methyl-8-(1H-pyrazol-4-yl)-1-(tetrahydro-2H-pyran-4-yl)-1,3-dihydro-2H-imidazo[4,5-c][1,5]naphthyridin-2-one]
PI3-Kα
  PI3Ka Ki: 11.3 nM
[1]
  IC50: 0.0183 µM
mTOR
  Ki: 1.03 nM

## Cc1ccc(-c2ccc3ncc4c(c3n2)n(C2CCOCC2)c(=O)n4C)cn1 [Compound 200, 3-methyl-8-(6-methylpyridin-3-yl)-1-(tetrahydro-2H-pyran-4-yl)-1,3-dihydro-2H-imidazo[4,5-c][1,5]naphthyridin-2-one]
PI3-Kα
  PI3Ka Ki: 1.11 nM
[1]
  IC50: 0.0273 µM
mTOR
  Ki: 1.72 nM

## COc1ncc(-c2ccc3ncc4c(c3n2)n(C2CCOCC2)c(=O)n4C)cn1 [Compound 201, 8-(2-methoxypyrimidin-5-yl)-3-methyl-1-(tetrahydro-2H-pyran-4-yl)-1,3-dihydro-2H-imidazo[4,5-c][1,5]naphthyridin-2-one]
PI3-Kα
  PI3Ka Ki: 8.96 nM
[1]
  IC50: 0.0989 µM
mTOR
  Ki: 6.42 nM

## Cn1cc(-c2ccc3ncc4c(c3n2)n(C2CCOCC2)c(=O)n4C)cn1 [Compound 203, 3-methyl-8-(1-methyl-1H-pyrazol-4-yl)-1-(tetrahydro-2H-pyran-4-yl)-1,3-dihydro-2H-imidazo[4,5-c][1,5]naphthyridin-2-one]
PI3-Kα
  PI3Ka Ki: 5.17 nM
[1]
  IC50: 0.0718 µM
mTOR
  Ki: 72.3 nM

## CN(C)c1ccc(-c2ccc3ncc4c(c3n2)n(C2CCOCC2)c(=O)n4C)cn1 [Compound 204, 8-[6-(dimethylamino)pyridin-3-yl]-3-methyl-1-(tetrahydro-2H-pyran-4-yl)-1,3-dihydro-2H-imidazo[4,5-c][1,5]naphthyridin-2-one]
PI3-Kα
  PI3Ka Ki: 0.298 nM
[1]
  IC50: 0.029 µM
mTOR
  Ki: 12.7 nM

## CN(C)c1ccc(-c2ccc3ncc4c(c3n2)n(C2CCN(C(=O)C(C)(C)C)CC2)c(=O)n4C)cn1 [Compound 205, 8-[6-(dimethylamino)pyridin-3-yl]-1-[1-(2,2-dimethylpropanoyl)piperidin-4-yl]-3-methyl-1,3-dihydro-2H-imidazo[4,5-c][1,5]naphthyridin-2-one]
PI3-Kα
  PI3Ka Ki: 0.281 nM
[1]
  IC50: 0.0214 µM
mTOR
  Ki: 4.38 nM

## COCCN1CCC(n2c(=O)n(C)c3cnc4ccc(-c5ccc(N(C)C)nc5)nc4c32)CC1 [Compound 206, 8-[6-(dimethylamino)pyridin-3-yl]-1-[1-(2-methoxyethyl)piperidin-4-yl]-3-methyl-1,3-dihydro-2H-imidazo[4,5-c][1,5]naphthyridin-2-one]
PI3-Kα
  PI3Ka Ki: 0.802 nM
[1]
  IC50: 0.0318 µM
mTOR
  Ki: 8.09 nM

## Cn1c(=O)n(C2CCOCC2)c2c3nc(-c4cnn(CCO)c4)ccc3ncc21 [Compound 208, 8-[1-(2-hydroxyethyl)-1H-pyrazol-4-yl]-3-methyl-1-(tetrahydro-2H-pyran-4-yl)-1,3-dihydro-2H-imidazo[4,5-c][1,5]naphthyridin-2-one]
PI3-Kα
  PI3Ka Ki: 24.4 nM
[1]
  IC50: 0.579 µM
mTOR
  Ki: 44.2 nM

## Cn1cc(-c2ccc3ncc4c(c3n2)n(C2CCN(CC(N)=O)CC2)c(=O)n4C)cn1 [Compound 211, 2-{4-[3-methyl-8-(1-methyl-1H-pyrazol-4-yl)-2-oxo-2,3-dihydro-1H-imidazo[4,5-c][1,5]naphthyridin-1-yl]piperidin-1-yl}acetamide]
PI3-Kα
  PI3Ka Ki: 4.63 nM
[1]
  IC50: 0.232 µM
mTOR
  Ki: 7.55 nM

## CC(=O)N1CCC(n2c(=O)n(C)c3cnc4ccc(-c5cnn(C)c5)nc4c32)CC1 [Compound 213, 1-(1-acetylpiperidin-4-yl)-3-methyl-8-(1-methyl-1H-pyrazol-4-yl)-1,3-dihydro-2H-imidazo[4,5-c][1,5]naphthyridin-2-one]
PI3-Kα
  PI3Ka Ki: 4.09 nM
[1]
  IC50: 0.133 µM
mTOR
  Ki: 7.81 nM
